Experimental data: patent publication US20040086880A1, “Method of producing nucleic acid molecules with reduced secondary structure” (priority 1999, published 2004)

How the values were obtained:
[1] = biological target: T1, Bst DNA polymerase (Geobacillus stearothermophilus, UniProt P52026); assay: Single nucleotide extension of 6-mer primers at varying dNTP concentration; assay type: biochemical; conditions: for extension efficiency of 6-mer primer compared with natural dNTP: dNTP 0.5 microM to 130 microM, 45° C., 8 hours
T1 construct: purchased New England Biolabs
T1 sequence (P52026 290-876 limits assumed): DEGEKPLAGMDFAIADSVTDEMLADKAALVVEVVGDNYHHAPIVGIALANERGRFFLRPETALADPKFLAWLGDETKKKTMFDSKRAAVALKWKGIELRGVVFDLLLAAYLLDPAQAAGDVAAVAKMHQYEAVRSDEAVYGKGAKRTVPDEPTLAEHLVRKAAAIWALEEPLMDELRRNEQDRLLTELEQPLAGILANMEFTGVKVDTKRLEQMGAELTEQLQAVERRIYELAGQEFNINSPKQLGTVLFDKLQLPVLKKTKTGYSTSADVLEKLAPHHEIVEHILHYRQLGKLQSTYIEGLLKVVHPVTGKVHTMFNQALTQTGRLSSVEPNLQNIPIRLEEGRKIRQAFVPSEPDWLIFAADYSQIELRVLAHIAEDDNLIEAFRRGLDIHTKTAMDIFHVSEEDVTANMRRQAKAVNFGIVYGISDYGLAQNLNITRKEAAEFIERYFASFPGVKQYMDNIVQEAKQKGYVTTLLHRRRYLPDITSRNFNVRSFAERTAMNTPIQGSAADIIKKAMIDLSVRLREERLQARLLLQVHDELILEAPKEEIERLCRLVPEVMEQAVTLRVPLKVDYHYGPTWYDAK
Description: To further assess the incorporation efficiency of the modified nucleotides by Bst DNA polymerase, the efficiency for a single nucleotide extension reaction was determined using two 6-mer primers in the presence of varying concentrations of dATP, 2-amino-2′-deoxyadenosine-5′-triphosphate, dTTP or 2-thiothymidine-5′-triphosphate (illustrated as 2-thioTTP) (FIGS. 3A and 4A). For this study, the reaction mixtures contained: 20 mM Tris-Cl (pH 8.8 @ 25° C.), 10 mM KCl, 10 mM (NH4)2SO4, 2 mM MgSO4, 0.1% Triton-X100, 500 nanoM 6-mer primer, 20 nanoM 30-mer DNA template, 0.8 units/microL (˜70 nanoM) Bst DNA polymerase and a dNTP concentration ranging from 0.5 microM to 130 microM. The reaction mixtures were incubated at 45° C. for 8 hours and separated by electrophoresis on 20% denaturing (7M urea) polyacrylamide gels.

[2] = biological target: T2, SuperScript II MMLV reverse transcriptase (Moloney murine leukemia virus, UniProt P03355, D1183G/D1242N/E1221Q); assay: Synthesis of fluorescently labeled cUNA from pBp-1 T7-RNA template with dCTP-Cy5; assay type: biochemical; conditions: substituted for dATP and TTP; one hour
T2 construct: 200 units of SuperScript II MMLV reverse transcriptase (InVitrogen); purchased InVitrogen
Description: The ability to generate fluorescently labeled cUNAs was tested using the pBp-1 T7-RNA template and dCTP-Cy5 fluorescently labeled nucleotide analogue (Perkin-Elmer/NEN). The reverse transcriptase reactions (10.0 uL) were performed in 0.65 mL pre-siliconized microfuge tubes containing the following components: 50 mM Tris-Cl (pH 8.3), 75 mM KCl, 3.0 mM MgCl2, 4.5 mM DTT, 500 uM dGTP (or dITP), 500 uM dATP (or 2-amino-2′-deoxyadenosine-5′-triphosphate), 500 uM TTP (or 2-thiothymidine-5′-triphosphate), the indicated amounts of dCTP and dCTP-Cy5, 40 nM pBp-1 RNA template, 1.0 uM T16N2 primer, 1.0 unit of RNase Out (In Vitrogen), and 100 units of SuperScript II MMLV reverse transcriptase (In Vitrogen). The buffer components, RNA template, and primer were annealed by heating to 75° C. for 4 minutes and quickly cooled to room temperature. The dNTPs and RNase inhibitor were then added and the reactions were initiated by the addition of the reverse transcriptase and incubated at 42° C. At one and three hours, 5.0 uL aliquots were removed, mixed with 0.07 ug of RNase A, and incubated at room temperature for 30 minutes. The ribonucleased reaction mixtures were quenched with EDTA and 8 M urea and separated by electrophoresis on 5% polyacrylamide gels (19:1) containing 1×TBE and 9M urea. The fluorescently-labeled products were visualized using a phosphorimager.

SMILES	extension efficiency of 6-mer primer compared with natural dNTP [1]	full-length fluorescently-labeled product [2]	EC50 [1]
Nc1nc(N)c2ncn([C@H]3C[C@H](O)[C@@H](COP(=O)(O)OP(=O)(O)OP(=O)(O)O)O3)c2n1 [2-amino-2′-deoxyadenosine-5′-triphosphate]	approximately equal efficiencies	full-length fluorescently-labeled product is generated	
Cc1cn([C@H]2C[C@H](O)[C@@H](COP(=O)(O)OP(=O)(O)OP(=O)(O)O)O2)c(=S)[nH]c1=O [2-thiothymidine-5′-triphosphate]	very similar	full-length fluorescently-labeled product is generated	~6 µM
